Experimental data: patent publication US12378250B2, “Tricyclic compound as IRAK4 inhibitor” (KOREA RESEARCH INSTITUTE OF CHEMICAL TECHNOLOGY, priority 2018, dated 2025)

Experiments:
IRAK4 enzyme = target: T1, IRAK4 enzyme (Homo sapiens, UniProt Q9NWZ3); assay: IRAK4 enzyme inhibition degree (bead-based kinase assay, peptide substrate BMKC-2, 100 μM ATP); assay type: biochemical; details: compound 1 μM
T1 sequence (Q9NWZ3 1-460): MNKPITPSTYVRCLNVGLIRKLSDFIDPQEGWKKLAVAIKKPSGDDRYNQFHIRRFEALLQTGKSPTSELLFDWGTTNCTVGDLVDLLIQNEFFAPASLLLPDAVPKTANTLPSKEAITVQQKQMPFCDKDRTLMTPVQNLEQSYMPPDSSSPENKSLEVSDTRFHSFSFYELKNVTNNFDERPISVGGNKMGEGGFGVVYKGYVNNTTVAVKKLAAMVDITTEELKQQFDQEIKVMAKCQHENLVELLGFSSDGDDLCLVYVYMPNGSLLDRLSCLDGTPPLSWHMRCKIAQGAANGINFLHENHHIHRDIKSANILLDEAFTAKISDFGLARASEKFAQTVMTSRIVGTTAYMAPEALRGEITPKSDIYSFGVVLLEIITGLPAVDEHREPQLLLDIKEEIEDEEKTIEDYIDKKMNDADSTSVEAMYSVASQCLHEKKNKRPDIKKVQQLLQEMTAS
How it was run: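 IRAK4 (0.4 ng/μl stock) preincubated 10 min with compound, then 6 μM BMKC-2 peptide with 100 μM ATP (mix concentrations) for 60 min at room temperature; EDTA stop. Phospho-Thr antibody with AlphaScreen donor/acceptor beads detected product; % inhibition versus controls, IC50 by non-linear regression.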

[1] = tested on: ISG promoter, THP1-Lucia™ ISG cell line; assay: ISG promoter inhibition, THP1-Lucia ISG cell line; assay type: cell-based; details: 1 μg/ml Poly(dA:dT)/LyoVec, 24 hours, read-out: ISG, % inhibition degree
How it was run: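 THP1-Lucia cells (NF-κB line 1×10^4/well, ISG line 2×10^4/well) preincubated with compound for 30 minutes. Stimulation then used 100 ng/ml LPS (NF-κB) or 1 μg/ml Poly(dA:dT)/LyoVec (ISG) for 24 hours. Secreted luciferase in supernatant measured by Quanti-luc luminescence.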

[2] = tested on: TNF-α in serum, LPS-induced systemic inflammatory disease; assay: Suppressive effects on LPS-induced systemic inflammatory disease in mice (serum TNF-α); assay type: in vivo, C57BL/6 mice; details: doses of 50 and 100 mg/kg, oral, 2 hours prior to LPS 15 mg/kg i.p.
Protocol: As experimental animals, 8-week-old C57BL/6 (20 to 23 g) mice were supplied from Orient Bio Co., Ltd. (Seongnam, Gyeonggi-do) and used. The mice were acclimatized for 2 weeks or more in an animal room of the Korea Research Institute of Chemical Technology, where temperature (22±1° C.) and humidity (50±10%) were automatically adjusted, and then used for experiments, and allowed to freely ingest water and feed. This animal experiment was performed with the approval of the Animal Care and Use Committee of the Korea Research Institute of Chemical Technology. A systemic inflammatory disease was induced by administering a dose of 15 mg/kg lipopolysaccharide (LPS, Sigma L2880) intraperitoneally to the mice. A test drug was suspended in a 10% Cremophor solution and administered orally 2 hours prior to LPS injection, the mice were anesthetized with isoflurane 1 hour after LPS administration, and blood was collected from the heart. Serum was obtained by centrifuging the collected blood at 13,000 rpm for 15 minutes, store at −20° C., and then taken if needed to measure the content of cytokine (TNF-α) in serum using an ELISA kit manufactured by BD Biosciences. […]

[3] = tested on: TMD-8 cells (B-cell lymphoma cell line); assay: Antitumor effect in SCID mice transplanted with TMD-8; assay type: in vivo
Protocol: As experimental animals, severe combined immunodeficiency (SCID) mice (C.B-17/IcrCrj-scid, female) were purchased from Charles River Laboratories Japan, Inc., and used. The mice were acclimatized for 2 weeks or more in an animal room, where temperature (22±1° C.) and humidity (50±10%) were automatically adjusted, and then used for experiments, and allowed to freely ingest water and feed. This animal experiment was performed with the approval of the Animal Care and Use Committee of the Korea Research Institute of Chemical Technology. As a TMD-8 cell line, which is a B-cell lymphoma cell line, a cell line whose subculture had been maintained in the Korea Research Institute of Chemical Technology was used.
Tumors in SCID mice were induced by transplanting TMD-8 cells at 9×10^6 cells/mouse to the right subcutaneous flank of each animal, and when the size of the transplanted tumor reached about 200 mm^3, drug administration was started ([…]). The test drug was suspended in a solution of 20% PEG400 and 3% Tween 80, and orally administered once a day for 14 days. After the test drug was administered, the diameter of the tumor (that is, a long diameter (a) and a short diameter (b) was measured using a calipers every 2 to 3 days, and according to a mathematical formula [size (mm^3) of tumor=(a×b^2)/2], the size (mm^3) of tumor was calculated, and is illustrated in FIGS. 3 and 4. As control drugs, PF-06650833 (Sigma) and ibrutinib (Medichem Express) were purchased and used, and the statistical significance of the antitumor effect of the test drug was verified using a student's T-test (SigmaStat, Jandel Scientific) program.

Fc1cncc(-c2ccc3[nH]c4ncnc(N[C@H]5CC[C@H](N6CCOCC6)CC5)c4c3c2)c1 [Compound 6aaf, 6-(5-fluoropyridin-3-yl)-N-(trans-4-morpholinocyclohexyl)-9H-pyrimido[4,5-b]indole-4-amine]
inhibition at 1 µM (IRAK4 enzyme): 100% | inhibition at 0.1 µM ([1]; 0.1 μM): 24% | inhibition at 1 µM ([1]; 1 μM): 83% | suppressive effect on systemic inflammation (serum TNF-α) compared to PF-06650833 [2]: better suppressive effect than PF-06650833 | antitumor effect (tumor size) in combination with ibrutinib ([3]; administered in combination with ibrutinib, oral, once a day for 14 days): excellent effect | change in body weight of the experimental animals ([3]; during the test period): not much change | antitumor effect (tumor size) compared to PF-06650833 ([3]; oral, once a day for 14 days, TMD-8 xenograft): did not show a significant difference in effect when compared to PF-06650833, but showed a slightly better tendency
